Where two headings read alike, the source gives them in different places.
What was measured:
PTPN1/PTP1B = molecular target: T1, PTPN1/PTP1B (Homo sapiens, UniProt P18031); assay: PTP1B inhibition, fluorescence time-course, 10-dose IC50 (Example 2); format: biochemical
T1 construct: The enzyme was the human truncated form (1-321), recombinantly produced in Escherichia coli; host or cells: Escherichia coli
T1 sequence (P18031 1-321): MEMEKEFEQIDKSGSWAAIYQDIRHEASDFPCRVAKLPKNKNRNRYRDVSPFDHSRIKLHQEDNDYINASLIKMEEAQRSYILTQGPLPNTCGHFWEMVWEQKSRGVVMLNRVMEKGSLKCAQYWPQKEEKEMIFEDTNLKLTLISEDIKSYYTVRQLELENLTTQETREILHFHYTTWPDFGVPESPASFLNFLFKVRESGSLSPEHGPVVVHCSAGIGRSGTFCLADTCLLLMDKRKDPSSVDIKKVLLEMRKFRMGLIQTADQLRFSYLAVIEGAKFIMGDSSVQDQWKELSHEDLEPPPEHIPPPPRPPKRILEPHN

PTPN6/SHP1 = molecular target: T2, PTPN6/SHP1 (Homo sapiens, UniProt P29350); assay: Phosphatase panel, DiFMUP fluorescence assay; format: biochemical
T2 construct: purchased Recation Biology Inc
T2 sequence (P29350 whole entry): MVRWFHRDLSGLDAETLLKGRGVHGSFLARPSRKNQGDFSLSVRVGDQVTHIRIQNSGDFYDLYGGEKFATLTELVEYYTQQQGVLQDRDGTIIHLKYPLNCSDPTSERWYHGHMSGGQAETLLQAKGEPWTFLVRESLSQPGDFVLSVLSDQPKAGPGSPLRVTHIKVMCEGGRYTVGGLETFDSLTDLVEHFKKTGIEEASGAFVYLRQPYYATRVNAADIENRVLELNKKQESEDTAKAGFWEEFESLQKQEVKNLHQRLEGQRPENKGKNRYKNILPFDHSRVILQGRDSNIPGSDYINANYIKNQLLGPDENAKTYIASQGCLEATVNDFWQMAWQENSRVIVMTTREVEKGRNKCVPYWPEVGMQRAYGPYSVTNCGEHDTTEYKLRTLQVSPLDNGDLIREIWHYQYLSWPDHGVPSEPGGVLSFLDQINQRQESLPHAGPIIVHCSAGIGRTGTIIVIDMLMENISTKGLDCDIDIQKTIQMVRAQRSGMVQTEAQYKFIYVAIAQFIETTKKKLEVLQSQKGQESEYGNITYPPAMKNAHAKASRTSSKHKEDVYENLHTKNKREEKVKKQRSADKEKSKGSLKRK

PTPRC/CD45 = molecular target: T3, PTPRC/CD45 (Homo sapiens, UniProt P08575); assay: Phosphatase panel, DiFMUP fluorescence assay; format: biochemical
T3 construct: purchased Recation Biology Inc
T3 sequence (P08575 26-1306): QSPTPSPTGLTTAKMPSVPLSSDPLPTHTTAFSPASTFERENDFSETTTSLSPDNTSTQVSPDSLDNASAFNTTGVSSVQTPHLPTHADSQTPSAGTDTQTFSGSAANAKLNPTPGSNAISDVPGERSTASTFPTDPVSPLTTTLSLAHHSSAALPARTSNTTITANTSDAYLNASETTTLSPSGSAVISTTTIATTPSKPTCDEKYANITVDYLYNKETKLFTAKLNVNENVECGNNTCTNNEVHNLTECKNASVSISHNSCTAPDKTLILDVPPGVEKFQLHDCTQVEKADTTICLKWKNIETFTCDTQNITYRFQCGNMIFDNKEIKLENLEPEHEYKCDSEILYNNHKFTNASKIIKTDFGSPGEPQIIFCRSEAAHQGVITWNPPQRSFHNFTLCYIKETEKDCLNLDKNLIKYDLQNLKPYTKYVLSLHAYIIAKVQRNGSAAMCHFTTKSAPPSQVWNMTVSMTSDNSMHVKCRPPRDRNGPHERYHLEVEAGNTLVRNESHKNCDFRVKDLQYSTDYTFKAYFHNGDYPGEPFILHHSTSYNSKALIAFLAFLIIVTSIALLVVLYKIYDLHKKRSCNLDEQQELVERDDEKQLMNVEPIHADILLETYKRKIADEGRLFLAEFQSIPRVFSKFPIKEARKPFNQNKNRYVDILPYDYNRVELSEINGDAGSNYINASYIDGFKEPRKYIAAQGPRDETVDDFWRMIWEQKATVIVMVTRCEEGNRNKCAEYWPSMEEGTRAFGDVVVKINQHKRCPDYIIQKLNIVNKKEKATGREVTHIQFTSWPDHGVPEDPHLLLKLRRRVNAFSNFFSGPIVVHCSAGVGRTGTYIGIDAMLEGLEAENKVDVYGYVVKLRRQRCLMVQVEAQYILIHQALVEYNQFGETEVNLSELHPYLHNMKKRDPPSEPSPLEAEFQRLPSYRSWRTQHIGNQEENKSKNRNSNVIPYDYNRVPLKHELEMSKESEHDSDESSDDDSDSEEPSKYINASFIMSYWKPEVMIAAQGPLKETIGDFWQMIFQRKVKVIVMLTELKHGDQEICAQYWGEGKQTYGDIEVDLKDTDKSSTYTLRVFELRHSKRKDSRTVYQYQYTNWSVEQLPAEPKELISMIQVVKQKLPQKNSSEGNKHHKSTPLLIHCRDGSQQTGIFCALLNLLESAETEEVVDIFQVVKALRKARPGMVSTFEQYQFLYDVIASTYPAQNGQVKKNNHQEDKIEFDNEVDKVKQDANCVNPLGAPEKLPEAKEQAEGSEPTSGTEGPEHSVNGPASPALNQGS

PTPN2/TC-PTP = molecular target: T4, PTPN2/TC-PTP (Homo sapiens, UniProt P17706); assay: Phosphatase panel, DiFMUP fluorescence assay; format: biochemical
T4 construct: purchased Recation Biology Inc
T4 sequence (P17706 1-415): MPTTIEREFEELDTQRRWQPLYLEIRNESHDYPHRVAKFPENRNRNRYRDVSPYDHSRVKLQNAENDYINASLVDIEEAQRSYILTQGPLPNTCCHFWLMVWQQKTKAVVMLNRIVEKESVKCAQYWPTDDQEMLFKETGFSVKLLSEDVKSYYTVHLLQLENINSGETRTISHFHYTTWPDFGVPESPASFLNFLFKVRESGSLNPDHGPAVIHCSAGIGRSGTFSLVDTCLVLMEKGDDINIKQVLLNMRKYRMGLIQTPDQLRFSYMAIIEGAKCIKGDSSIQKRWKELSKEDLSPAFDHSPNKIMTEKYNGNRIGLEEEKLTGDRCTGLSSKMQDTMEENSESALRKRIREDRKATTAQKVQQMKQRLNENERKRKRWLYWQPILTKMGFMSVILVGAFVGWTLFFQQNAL

PTPN12/PTP-PEST = molecular target: T5, PTPN12/PTP-PEST (Homo sapiens, UniProt Q05209); assay: Phosphatase panel, DiFMUP fluorescence assay; format: biochemical
T5 construct: purchased Recation Biology Inc
T5 sequence (Q05209 1-780): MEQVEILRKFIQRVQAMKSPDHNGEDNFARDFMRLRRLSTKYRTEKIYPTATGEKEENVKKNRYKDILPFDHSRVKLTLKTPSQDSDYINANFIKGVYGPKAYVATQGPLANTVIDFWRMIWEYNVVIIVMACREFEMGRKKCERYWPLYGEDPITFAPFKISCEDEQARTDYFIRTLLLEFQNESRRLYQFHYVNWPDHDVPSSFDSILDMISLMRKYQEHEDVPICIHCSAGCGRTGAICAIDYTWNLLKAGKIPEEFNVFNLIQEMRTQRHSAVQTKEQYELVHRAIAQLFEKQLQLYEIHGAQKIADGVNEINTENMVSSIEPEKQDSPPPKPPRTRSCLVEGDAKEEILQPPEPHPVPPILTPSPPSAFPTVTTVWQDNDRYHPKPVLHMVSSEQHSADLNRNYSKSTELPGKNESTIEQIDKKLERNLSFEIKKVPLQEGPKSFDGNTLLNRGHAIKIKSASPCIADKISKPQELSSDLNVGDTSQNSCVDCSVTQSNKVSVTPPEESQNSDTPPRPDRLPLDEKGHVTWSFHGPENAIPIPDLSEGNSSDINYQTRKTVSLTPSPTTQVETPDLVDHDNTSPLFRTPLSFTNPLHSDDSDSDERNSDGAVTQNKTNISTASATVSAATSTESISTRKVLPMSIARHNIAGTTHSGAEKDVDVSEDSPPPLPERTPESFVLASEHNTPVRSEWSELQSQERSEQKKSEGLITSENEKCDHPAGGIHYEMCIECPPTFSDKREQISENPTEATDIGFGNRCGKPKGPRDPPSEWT

[1] = molecular target: Tyrosine-protein phosphatase non-receptor type 11 (Homo sapiens, UniProt Q06124); assay: Phosphatase panel, DiFMUP fluorescence assay; format: biochemical
Chain of Tyrosine-protein phosphatase non-receptor type 11 (Q06124 247-517): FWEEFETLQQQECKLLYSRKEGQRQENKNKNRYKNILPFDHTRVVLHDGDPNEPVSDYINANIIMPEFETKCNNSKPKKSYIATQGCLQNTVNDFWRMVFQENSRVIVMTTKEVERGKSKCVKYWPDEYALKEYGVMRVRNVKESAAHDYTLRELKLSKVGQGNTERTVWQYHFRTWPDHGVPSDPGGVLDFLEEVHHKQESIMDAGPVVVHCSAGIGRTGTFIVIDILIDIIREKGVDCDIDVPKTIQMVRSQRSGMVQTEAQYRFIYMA

[2] = molecular target: T6, PP2A Alpha/PP2R1A Complex (Homo sapiens, UniProt P67775); assay: Phosphatase panel, DiFMUP fluorescence assay; format: biochemical
T6 construct: purchased Recation Biology Inc
T6 sequence (P67775 whole entry): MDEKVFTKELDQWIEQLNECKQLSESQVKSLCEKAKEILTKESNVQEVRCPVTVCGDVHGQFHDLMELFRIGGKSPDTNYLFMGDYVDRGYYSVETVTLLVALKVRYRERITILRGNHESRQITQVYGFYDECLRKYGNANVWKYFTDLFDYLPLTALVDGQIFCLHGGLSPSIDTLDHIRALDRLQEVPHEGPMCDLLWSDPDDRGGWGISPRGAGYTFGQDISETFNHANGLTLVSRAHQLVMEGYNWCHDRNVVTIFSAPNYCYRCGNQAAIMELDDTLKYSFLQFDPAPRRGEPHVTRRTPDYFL
T6 sequence (P30153 whole entry partner): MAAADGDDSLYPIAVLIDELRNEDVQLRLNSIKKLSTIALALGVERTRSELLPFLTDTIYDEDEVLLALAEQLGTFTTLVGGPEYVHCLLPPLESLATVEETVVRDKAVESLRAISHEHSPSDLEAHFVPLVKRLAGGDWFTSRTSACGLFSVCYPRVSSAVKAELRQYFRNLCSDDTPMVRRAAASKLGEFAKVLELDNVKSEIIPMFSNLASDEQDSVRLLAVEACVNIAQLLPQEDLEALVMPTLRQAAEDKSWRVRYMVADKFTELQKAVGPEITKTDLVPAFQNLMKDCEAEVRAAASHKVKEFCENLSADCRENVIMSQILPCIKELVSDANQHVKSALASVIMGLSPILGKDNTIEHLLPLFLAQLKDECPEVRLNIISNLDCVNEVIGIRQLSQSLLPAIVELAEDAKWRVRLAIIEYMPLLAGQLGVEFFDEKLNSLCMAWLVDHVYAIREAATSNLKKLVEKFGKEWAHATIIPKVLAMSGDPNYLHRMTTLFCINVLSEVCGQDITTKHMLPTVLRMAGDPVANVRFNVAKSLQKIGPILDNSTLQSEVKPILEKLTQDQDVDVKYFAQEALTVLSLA

stomach tissues = assay: Stomach RNA-sequencing, ENT-02 (MSI-1436) treatment and congruence with ENT-03 (Example 10); format: in vivo, mice; conditions: stomach RNA-seq
Experimental: Samples of stomach tissues from the mice were analysed by RNA-sequencing on an Illumina platform.
To achieve these aims, data were subject to a quality control evaluation, differential expression and functional enrichment analyses, as well as a congruence analysis.
[…] At this threshold, differentially expressed genes were identified in all contrasts.
As mentioned previously, for statistical robustness, only those with an adjusted p-value <0.05 should be considered. […]
The amount of overlap is represented in FIGS. 28A-28D. For each comparison, the value in the plot represents the number of intersecting selected genes and the color represents the Jaccard index (the intersection over the union) for the two contrasts under consideration.
Scatter plots, upset plots, venn diagrams, hypergeometric tests and Spearman rank correlation tests were employed to assess the level of overlap as shown in FIGS. 15-27.

[2H]C([2H])([2H])C([2H])(C(CC[C@@H](C)[C@H]1CCC2C3C(CC[C@@]21C)[C@@]1(C)CC[C@H](NCCCNCCCCNCCCN)C[C@@H]1C[C@H]3O)OS(=O)(=O)O)C([2H])([2H])[2H] (some centres unmarked) [Compound D7-1436]
Slope (signal/min) (PTPN1/PTP1B; Conc 1.00E−04 M): −161 signal/min | Slope (signal/min) (PTPN1/PTP1B; Conc 1.11E−05 M): −319 signal/min | Slope (signal/min) (PTPN1/PTP1B; Conc 1.23E−06 M): 34760 signal/min | Slope (signal/min) (PTPN1/PTP1B; Conc 1.37E−07 M): 40150 signal/min | Slope (signal/min) (PTPN1/PTP1B; Conc 1.52E−08 M): 43819 signal/min | Slope (signal/min) (PTPN1/PTP1B; Conc 3.33E−05 M): −362 signal/min | Slope (signal/min) (PTPN1/PTP1B; Conc 3.70E−06 M): 8429 signal/min | Slope (signal/min) (PTPN1/PTP1B; Conc 4.12E−07 M): 41755 signal/min | Slope (signal/min) (PTPN1/PTP1B; Conc 4.57E−08 M): 43697 signal/min | Slope (signal/min) (PTPN1/PTP1B; Conc 5.08E−09 M): 44655 signal/min | HILLSLOPE (PTPN1/PTP1B; Table 5A): −2.50

CCc1oc2cc(S(=O)(=O)Nc3ccc(S(=O)(=O)Nc4nccs4)cc3)ccc2c1C(=O)c1cc(Br)c(O)c(Br)c1 [PTP1B Inhibitor, 3-(3,5-Dibromo-4-hydroxy-benzoyl)-2-ethyl-benzofuran-6-sulfonicacid-(4-(thiazol-2-ylsulfamyl)-phenyl)-amide, reference compound]
IC50 (PTPN6/SHP1; Table 5B, read-out: Compound IC50 (M) PTPN6/SHP1): 5.75e-06 M | IC50 (PTPN6/SHP1; Table 18A, read-out: inhibitory activity PTPN6/SHP1): 3.47e-06 M | IC50 (PTPN6/SHP1; Table 19A, read-out: inhibitory activity PTPN6/SHP1): 3.67e-06 M | IC50 (PTPRC/CD45; Table 5B, read-out: Compound IC50 (M) PTPRC/CD45): 5.7e-05 M | IC50 (PTPRC/CD45; Table 18A, read-out: inhibitory activity PTPRC/CD45): 2.8e-05 M | IC50 (PTPRC/CD45; Table 19A, read-out: inhibitory activity PTPRC/CD45): 2.66e-05 M | IC50 (PTPN2/TC-PTP; Table 5C, read-out: Compound IC50 (M) PTPN2/TC-PTP): 1.34e-05 M | IC50 (PTPN2/TC-PTP; Table 18B, read-out: inhibitory activity PTPN2/TC-PTP): 7.53e-06 M | IC50 (PTPN2/TC-PTP; Table 19B, read-out: inhibitory activity PTPN2/TC-PTP): 5.86e-06 M | IC50 (PTPN12/PTP-PEST; Table 5C, read-out: Compound IC50 (M) PTPN12/PTP-PEST): 2.99e-05 M | IC50 (PTPN12/PTP-PEST; Table 18B, read-out: inhibitory activity PTPN12/PTP-PEST): 2.16e-06 M | IC50 (PTPN12/PTP-PEST; Table 19B, read-out: inhibitory activity PTPN12/PTP-PEST): 1.21e-06 M | IC50 [1]: 1.82 µM

CC1(C(=O)O)C2CCC(O2)C1(C)C(=O)O (centres unmarked) [Canthardic Acid, Cantharidic acid, reference compound]
IC50 ([2]; Compound IC50 (M) PP2A Alpha/PP2R1A Complex, Table 5B): 1.7e-08 M | IC50 ([2]; inhibitory activity PP2A Alpha/PP2R1A Complex, Table 18A): 2.78e-08 M | IC50 ([2]; inhibitory activity PP2A Alpha/PP2R1A Complex, Table 19A): 3.01e-08 M

CC(C)[C@@H](CC[C@@H](C)[C@H]1CC[C@H]2[C@@H]3[C@H](O)C[C@H]4C[C@@H](NCCCNCCCCN)CC[C@]4(C)[C@H]3CC[C@]12C)OS(=O)(=O)O (single isomer, unassigned) [Ent-01, Squalamine]
number of significant features, down-regulated, fold change threshold 4x (stomach tissues; old vs young mice, both treated, threshold 4x): 69 | number of significant features, down-regulated, fold change threshold 8x (stomach tissues; old vs young mice, both treated, threshold 8x): 36 | number of significant features, down-regulated, fold change threshold 16x (stomach tissues; old vs young mice, both treated, threshold 16x): 27 | number of significant features, down-regulated, fold change threshold 4x (stomach tissues; treatment vs control, old mice, threshold 4x): 66 | number of significant features, down-regulated, fold change threshold 8x (stomach tissues; treatment vs control, old mice, threshold 8x): 25 | number of significant features, down-regulated, fold change threshold 16x (stomach tissues; treatment vs control, old mice, threshold 16x): 11 | number of significant features, down-regulated, fold change threshold 8x (stomach tissues; treatment vs control, young mice, threshold 8x): 47 | number of significant features, down-regulated, fold change threshold 16x (stomach tissues; treatment vs control, young mice, threshold 16x): 12 | number of significant features, up-regulated, fold change threshold 4x (stomach tissues; treatment vs control, young mice, up-regulated, threshold 4x): 58 | number of significant features, up-regulated, fold change threshold 8x (stomach tissues; treatment vs control, young mice, up-regulated, threshold 8x): 38 | number of significant features, up-regulated, fold change threshold 16x (stomach tissues; treatment vs control, young mice, up-regulated, threshold 16x): 28
